For 1 molecule, Neurological scores results are on record in patent publication US8552059B2, “Treatment of ischemic episodes and cerebroprotection through misoprostol” (The Board of Trustees of the Leland Stanford Junior …, priority 2009, dated 2013).

In the assay the test system is murine middle cerebral artery occlusion-reperfusion (MCAO-RP) model of transient focal ischemia. Briefly: Middle cerebral artery occlusion-reperfusion (MCAO-RP), 90 min MCAO, misoprostol. The assay is classed as in vivo, mouse. The settings on record: p<0.05.

Protocol: Focal cerebral ischemia was induced by 90 minutes of reversible right middle cerebral artery occlusion (MCAO) under isofluorane anesthesia followed by 22.5 hours or 72 hours of reperfusion and terminal histopathology, as previously described (McCullough et al., 2004). […] Mice were given 3 subcutaneous injections of either vehicle (hydroxypropyl-methyl cellulose; HPMC) or 1 mg/kg misoprostol in HPMC (1:100 misoprostol:HPMC; Pfizer, Groton, Conn.) (Best et al., 1995) either at onset of MCAO or 2 hours after MCAO, followed by two subsequent doses 6 and 12 hours later. In the first experiment, misoprostol was given at onset of MCAO, with the two subsequent injections given at 6 hours and at 12 hours post MCAO, and brains were analyzed 22.5 hours later. In the second experiment, treatment with the initial dose of misoprostol was delayed two hours after the onset of MCAO, and two subsequent doses were then administered at 8 hours and 14 hours after MCAO and brains were analyzed at 22.5 hours later. In the third experiment, a delayed time point was tested, and misoprostol was given 2 hours after MCAO and again at 6 and 12 hours; brains were examined at 72 hours. […] A fifth cohort of EP3−/− and +/+ mice underwent treatment with either vehicle or misoprostol at MCAO, with subsequent administration of misoprostol or vehicle at 6 and 12 hours post MCAO and brain examination 22.5 hours later.

As to `CCCCC(C)(O)C/C=C/[C@H]1[C@H](O)CC(=O)[C@@H]1CCCCCCC(=O)OC` (mixture of isomers) [misoprostol], the Neurological scores (1 mg/kg s.c. 2 h after MCAO, again at 6 and 12 h, 72 h, comparison value 2.6+/−0.24) is on record as 1.0+/−0.22; the Neurological scores (1 mg/kg s.c. 2 h after MCAO, then at 8 and 14 h, 24 h, comparison value 2.6+/−0.3) is reported as 1.7+/−0.3; the Neurological scores (1 mg/kg s.c. at onset of 90 min MCAO, then at 6 and 12 h, 24 h, comparison value 2.4+/−0.2) is listed as 1.8+/−0.2.
